Laboratory results: patent publication US9121026B2 (priority 2004, dated 2015)

How the values were obtained:
Assay type in all cases: cell-based, Saccharomyces cerevisiae
[1] = tested on: RE700A e PCUP-HXT7 (ECFP); assay: Growth inhibition of ECFP by 2-DG; conditions: 20 h 28° C., maltose, in percent of growth of RE700A
Experimental: (A) RE700A, ECFP and ET[PDR] were incubated 20 h at 28° C. with maltose (2% (w/v)) as the sole carbon source in the presence of the indicated 2-DG concentrations. The optical density was measured at 600 nm every 15 minutes and the integral under the growth curve was calculated. Inhibition of growth of ECFP and ET[PDR] is shown in percent of growth of RE700A. Growth of ECFP was inhibited by 39% at 0.005% (w/v) 2-DG, by 78% at 0.01% (w/v) 2-DG, by 91% at 0.03% (w/v) 2-DG and by 93% at 0.05% (w/v) 2-DG. Growth of ET[PDR] was inhibited by 52% at 0.005% (w/v) 2-DG, by 87% at 0.01% (w/v) 2-DG, by 94% at 0.03% (w/v) 2-DG and by 96% at 0.05% (w/v) 2-DG.
(§1) Strain growth: The growth of the strains in liquid medium was determined by measuring the optical density at 600 nm. To obtain growth curves, measurements were performed every 15 min. Alternatively, start and endpoint (after 12-16 h) measurements were carried out.

[2] = tested on: RE700A e PCDR2-HXT7 (ET[CDR2]); assay: Growth inhibition of ET[CDR2] by 2-DG; conditions: liquid media, 20 h 28° C., compared to growth in the absence of 2-DG
Experimental: FIG. 6: Growth inhibition of RE700A, ET[CDR1] and ET[CDR2] in the presence of increasing 2-DG concentrations after 20 h incubation at 28° C. for in liquid medium. RE700A, ET[CDR1] and ET[CDR2] were incubated 20 h at 28° C. with maltose (2% (w/v)) as the sole carbon source in the presence of increasing 2-DG concentrations in liquid medium. The optical density was measured at 600 nm semi-continuously every 15 minutes and the integral under the growth curve was calculated. Inhibition of growth is shown in percent compared to growth in the absence of 2-DG. Growth of ET[CDR1] was inhibited by 92% at a 2-DG concentration in liquid media of 0.05% (w/v), by 94% at a 2-DG concentration in liquid media of 0.075% (w/v), by 93% at a 2-DG concentration in liquid media of 0.1% (w/v) and by 95% at a 2-DG concentration of 0.2% (w/v). Growth of ET[CDR2] was inhibited by 50% at a 2-DG concentration in liquid media of 0.05% (w/v), by 70% at a 2-DG concentration in liquid media of 0.075% (w/v), by 70% at a 2-DG concentration in liquid media of 0.1% (w/v) and by 84% at a 2-DG concentration of 0.2% (w/v).
(2) Episomal screening system for inhibitors of PCDR2: S. cerevisiae strain RE700A was transformed with plasmids pY-PCDR2-HXT7 and pY-PCDR2-GFP yielding strains ET[CDR2] and CQ[CDR2] (for details see construction of strains and plasmids, for the complete genotype refer to Table 1). The inhibition of growth of ET[CDR2] by 2-DG was tested. The growth of this strain was inhibited to more than 80% at a 2-DG concentration of 0.2% (w/v) (FIG. 6). To screen for inhibitors of the PCDR2, the test strain ET[CDR2] can be incubated in selective YNB medium with 2% (w/v) maltose as the carbon source and 0.2% (w/v) 2-DG. Under these non-permissive conditions the growth of the test strain ET[CDR2] was inhibited when PCDR2 was active (FIG. 6).

[3] = tested on: RE700A Δpdr1 tok1::PPDR5long-HXT7; assay: Growth of RE700A Δpdr1 tok1::PPDR5long-HXT7 in the presence of 2-DG; conditions: RE700A Δpdr1 tok1::PPDR5long-HXT7, 20 h 28° C.
Experimental: (§2) (B) Relative growth of RE700A tok1::PPDR5long-HXT7, RE700A Δpdr1 tok1::PPDR5long-HXT7, RE700A Δpdr3 tok1::PPDR5long-HXT7 and RE700A Δpdr1,3 tok1::PPDR5long-HXT7 in the presence of 2-DG. Cells were incubated for 20 h at 28° C. with 2-DG at different concentrations. […] The standard error of the mean (n=5) is indicated.

[4] = tested on: RE700A Δpdr1,3 tok1::PPDR5long-HXT7; assay: Growth of RE700A Δpdr1,3 tok1::PPDR5long-HXT7 in the presence of 2-DG
Experimental: as §2

[5] = tested on: RE700A Δpdr3 tok1::PPDR5long-HXT7; assay: Growth of RE700A Δpdr3 tok1::PPDR5long-HXT7 in the presence of 2-DG; conditions: RE700A Δpdr3 tok1::PPDR5long-HXT7, 20 h 28° C.
Experimental: as §2

[6] = tested on: RE700A tok1::PPDR5long-HXT7; assay: Growth of RE700A tok1::PPDR5long-HXT7 in the presence of 2-DG; conditions: RE700A tok1::PPDR5long-HXT7, liquid media, 20 h 28° C.
Experimental: as §2

[7] = tested on: S. cerevisiae strain RE700A; assay: Growth inhibition of RE700A by 2-DG in liquid maltose medium (OD600, integral under growth curve)
Experimental: FIG. 1: Growth inhibition of S. cerevisiae strain RE700A at increasing 2-deoxy-glucose (2-DG) concentrations after incubation at 280 C for 20 h. RE700A was incubated for 20 h at 28° C. with maltose (2% (w/v)) as the sole carbon source and 2-DG at the concentrations indicated. The optical density was measured at 600 nm every 15 minutes and the integral under the growth curve was calculated. Inhibition of growth is shown in percent of growth of RE700A in the absence of 2-DG. The strain grew well in the presence of up to 0.5% (w/v) 2-DG.
as §1
The screening system used Saccharomyces cerevisiae RE700A, a yeast strain deprived of the seven most important glucose transporters (HXT1-7) (Reifenberger, E. et al., Molecular Microbiology 16:157-167 (1995)). The strain is not able to grow on glucose as the sole carbon source. It grows on maltose (2% (w/v)) as the sole carbon source. In addition, the strain grows well on maltose also in the presence of up to 0.5% (w/v) 2-deoxy-glucose (2-DG), a toxic glucose analogue, in the medium (FIG. 1). Growth is inhibited by 50% at a 2-DG concentration in liquid media of ˜1% (w/v) (FIG. 1).

`O=CC[C@@H](O)[C@H](O)[C@H](O)CO` [2-DG, 2-deoxy-glucose] was tested, and the Inhibition of growth ([1]; 0.005% (w/v) 2-DG) was 39%, the Inhibition of growth ([1]; 0.01% (w/v) 2-DG) was 78% and the Inhibition of growth ([1]; 0.03% (w/v) 2-DG) was 91%. The Inhibition of growth ([1]; 0.05% (w/v) 2-DG) was 93%, the Inhibition of growth ([2]; 0.05% (w/v) 2-DG) was 50% and the Inhibition of growth ([2]; 0.075% (w/v) 2-DG) was 70%. For the same compound, the Inhibition of growth ([2]; 0.1% (w/v) 2-DG) was 70%, the “2-DG concentration for 50% growth inhibition” value [3] was 0.068 % (w/v) and the “Sensitivity to 2-DG compared with the other PPDR5long-HXT7 strains” value ([4]; RE700A Δpdr1,3 tok1::PPDR5long-HXT7, 20 h 28° C., n=5) was “far less sensitive”. For the same compound, the “2-DG concentration for 50% growth inhibition” value ([4]; RE700A Δpdr1,3 tok1::PPDR5long-HXT7, liquid media, 20 h 28° C.) was 0.6 % (w/v), the “Increase of tolerance to 2-DG” value ([4]; RE700A Δpdr1,3 tok1::PPDR5long-HXT7 versus RE700A Δpdr1 tok1::PPDR5long-HXT7) was about 10 fold and the “2-DG concentration for 50% growth inhibition” value [5] was 0.029 % (w/v). The “2-DG concentration for 50% growth inhibition” value [6] was 0,025 % (w/v), the “2-DG concentration at which growth is inhibited by 50%” value ([7]; liquid media, maltose) was ~1 % (w/v) and the “2-DG concentration up to which the strain grows well” value ([7]; maltose 2% (w/v) sole carbon source, 20 h, 28° C.) was “up to 0.5 % (w/v)”.
